Experiments:
Assay in all cases: DSF
Format in all cases: binding
EPHA2 = target: T1, EPHA2 (Homo sapiens, UniProt P29317)
T1 construct: purchased in-house DSF panel (SGC Frankfurt)
T1 sequence (P29317 596-900): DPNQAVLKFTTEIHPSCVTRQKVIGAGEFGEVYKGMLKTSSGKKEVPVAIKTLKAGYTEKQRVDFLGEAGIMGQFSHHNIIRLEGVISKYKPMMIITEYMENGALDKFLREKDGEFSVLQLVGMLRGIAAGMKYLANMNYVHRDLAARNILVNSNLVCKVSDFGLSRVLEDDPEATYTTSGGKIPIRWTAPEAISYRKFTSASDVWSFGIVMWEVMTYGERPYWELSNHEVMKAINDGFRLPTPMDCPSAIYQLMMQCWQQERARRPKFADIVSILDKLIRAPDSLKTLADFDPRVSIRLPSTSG
Description: (§2) Recombinant protein kinase domains with a concentration of 2 μM were mixed with a 10 μM compound solution in DMSO, 20 mM HEPES, pH 7.5, and 500 mM NaCl. SYPRO Orange (5000×, Invitrogen) was added as a fluorescence probe (1 µl per mL). Subsequently, temperature-dependent protein unfolding profiles were measured, using the QuantStudio™ 5 realtime PCR machine (Thermo Fisher, Waltham, MA, USA). […] The temperature was raised with a step rate of 3 °C per minute. Data points were analyzed with the internal software (Thermal Shift SoftwareTM Version 1.4, Thermo Fisher) using the Boltzmann equation to determine the inflection point of the transition curve [56]. Differences in melting temperature are given as ΔTm values in °C. Measurements were performed in duplicates.

CK2A2 = target: T2, CK2A2 (Homo sapiens, UniProt P19784);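 note: compound tested at 10 µM with 2 µM protein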
T2 construct: purchased in-house DSF panel (SGC Frankfurt)
T2 sequence (P19784 whole entry): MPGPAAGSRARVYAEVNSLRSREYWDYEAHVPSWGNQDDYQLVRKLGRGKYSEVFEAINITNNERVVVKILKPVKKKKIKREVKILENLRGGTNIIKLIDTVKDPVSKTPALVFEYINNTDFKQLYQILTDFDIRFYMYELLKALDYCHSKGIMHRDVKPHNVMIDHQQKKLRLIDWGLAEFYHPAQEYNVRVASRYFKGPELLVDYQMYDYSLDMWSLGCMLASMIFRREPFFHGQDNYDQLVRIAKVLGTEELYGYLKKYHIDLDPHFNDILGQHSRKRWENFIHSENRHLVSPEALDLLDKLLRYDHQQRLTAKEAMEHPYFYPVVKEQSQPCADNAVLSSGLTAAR
Description: as §2

MAPK15 = target: T3, MAPK15 (Homo sapiens, UniProt Q8TD08)
T3 construct: purchased in-house DSF panel (SGC Frankfurt)
T3 sequence (Q8TD08 1-346): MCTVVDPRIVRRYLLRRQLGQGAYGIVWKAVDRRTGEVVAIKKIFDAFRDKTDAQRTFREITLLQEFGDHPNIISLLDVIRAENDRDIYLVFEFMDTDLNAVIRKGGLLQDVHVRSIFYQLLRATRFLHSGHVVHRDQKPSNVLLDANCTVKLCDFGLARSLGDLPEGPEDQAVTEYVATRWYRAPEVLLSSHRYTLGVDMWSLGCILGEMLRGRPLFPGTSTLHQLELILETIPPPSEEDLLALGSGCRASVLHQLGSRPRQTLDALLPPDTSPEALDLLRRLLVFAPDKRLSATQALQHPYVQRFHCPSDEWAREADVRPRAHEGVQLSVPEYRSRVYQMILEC
Description: as §2

CAMK1G = target: T4, CAMK1G (Homo sapiens, UniProt Q96NX5)
T4 construct: purchased in-house DSF panel (SGC Frankfurt)
T4 sequence (Q96NX5 whole entry): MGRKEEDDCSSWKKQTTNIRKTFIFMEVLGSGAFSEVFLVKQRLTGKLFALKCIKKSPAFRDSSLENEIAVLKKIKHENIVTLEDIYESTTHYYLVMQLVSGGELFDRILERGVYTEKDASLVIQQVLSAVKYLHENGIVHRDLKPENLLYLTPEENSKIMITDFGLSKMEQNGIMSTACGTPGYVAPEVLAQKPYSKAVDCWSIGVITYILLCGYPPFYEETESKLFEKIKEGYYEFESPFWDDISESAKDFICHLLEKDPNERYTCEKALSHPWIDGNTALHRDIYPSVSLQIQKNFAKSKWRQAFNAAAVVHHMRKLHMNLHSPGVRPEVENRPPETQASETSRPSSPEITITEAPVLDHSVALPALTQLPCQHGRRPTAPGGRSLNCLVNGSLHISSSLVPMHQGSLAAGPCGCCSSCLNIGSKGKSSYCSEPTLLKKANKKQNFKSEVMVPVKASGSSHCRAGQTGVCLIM
Description: (§1) Recombinant protein kinase domains with a concentration of 2 μM were mixed with a 10 μM compound solution in DMSO, 20 mM HEPES, pH 7.5, and 500 mM NaCl. SYPRO Orange (5000×, Invitrogen) was added as a fluorescence probe (1 µl per mL). Subsequently, temperature-dependent protein unfolding profiles were measured, using the QuantStudio™ 5 realtime PCR machine (Thermo Fisher, Waltham, MA, USA). […] The temperature was raised with a step rate of 3 °C per minute. Data points were analyzed with the internal software (Thermal Shift SoftwareTM Version 1.4, Thermo Fisher) using the Boltzmann equation to determine the inflection point of the transition curve. Differences in melting temperature are given as ΔTm values in °C. Measurements were performed in duplicates.

CHEK2 = target: T5, CHEK2 (Homo sapiens, UniProt O96017)
T5 construct: purchased in-house DSF panel (SGC Frankfurt)
T5 sequence (O96017 210-531): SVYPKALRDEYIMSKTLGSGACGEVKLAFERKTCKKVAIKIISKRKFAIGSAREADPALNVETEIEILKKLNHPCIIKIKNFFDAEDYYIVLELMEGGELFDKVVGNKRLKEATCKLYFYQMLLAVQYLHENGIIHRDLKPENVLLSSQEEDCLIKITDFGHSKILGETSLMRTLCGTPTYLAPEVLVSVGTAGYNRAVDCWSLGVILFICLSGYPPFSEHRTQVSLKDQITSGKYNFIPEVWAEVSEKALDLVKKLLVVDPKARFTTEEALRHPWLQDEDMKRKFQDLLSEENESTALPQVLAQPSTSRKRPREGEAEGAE
Description: as §1

CAMK1D = target: T6, CAMK1D (Homo sapiens, UniProt Q8IU85)
T6 construct: purchased in-house DSF panel (SGC Frankfurt)
T6 sequence (Q8IU85 23-279): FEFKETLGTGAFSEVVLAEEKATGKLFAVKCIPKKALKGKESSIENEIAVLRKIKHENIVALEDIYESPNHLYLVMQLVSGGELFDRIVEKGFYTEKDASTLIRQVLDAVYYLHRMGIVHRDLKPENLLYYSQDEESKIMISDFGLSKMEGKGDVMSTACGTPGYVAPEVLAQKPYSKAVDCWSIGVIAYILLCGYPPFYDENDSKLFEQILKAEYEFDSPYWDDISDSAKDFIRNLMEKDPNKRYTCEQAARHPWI
Description: as §1

FES = target: T7, FES (Homo sapiens, UniProt P07332)
T7 construct: purchased in-house DSF panel (SGC Frankfurt)
T7 sequence (P07332 whole entry): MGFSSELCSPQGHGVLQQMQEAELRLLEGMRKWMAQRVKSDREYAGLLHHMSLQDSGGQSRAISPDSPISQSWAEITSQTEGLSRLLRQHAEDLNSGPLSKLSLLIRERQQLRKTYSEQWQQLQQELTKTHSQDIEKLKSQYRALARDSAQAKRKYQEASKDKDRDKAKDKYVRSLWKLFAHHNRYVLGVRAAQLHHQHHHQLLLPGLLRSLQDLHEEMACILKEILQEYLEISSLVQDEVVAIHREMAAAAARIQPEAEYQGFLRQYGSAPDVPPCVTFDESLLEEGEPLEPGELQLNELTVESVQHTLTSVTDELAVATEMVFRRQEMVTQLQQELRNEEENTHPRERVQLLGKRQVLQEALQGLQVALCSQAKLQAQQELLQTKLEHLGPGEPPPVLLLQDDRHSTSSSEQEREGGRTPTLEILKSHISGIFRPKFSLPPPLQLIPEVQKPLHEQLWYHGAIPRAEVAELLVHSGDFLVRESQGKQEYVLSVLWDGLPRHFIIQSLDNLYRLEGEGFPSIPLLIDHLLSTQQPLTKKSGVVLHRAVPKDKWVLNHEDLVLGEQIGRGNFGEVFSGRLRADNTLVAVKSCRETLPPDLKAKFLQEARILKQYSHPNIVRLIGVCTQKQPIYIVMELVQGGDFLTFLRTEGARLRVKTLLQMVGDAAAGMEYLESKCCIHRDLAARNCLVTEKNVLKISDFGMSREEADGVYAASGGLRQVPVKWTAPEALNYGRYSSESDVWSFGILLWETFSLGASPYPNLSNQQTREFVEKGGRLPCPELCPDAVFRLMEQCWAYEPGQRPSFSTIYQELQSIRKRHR
Description: as §1

GAK = target: T8, GAK (Homo sapiens, UniProt O14976)
T8 construct: purchased in-house DSF panel (SGC Frankfurt)
T8 sequence (O14976 14-351): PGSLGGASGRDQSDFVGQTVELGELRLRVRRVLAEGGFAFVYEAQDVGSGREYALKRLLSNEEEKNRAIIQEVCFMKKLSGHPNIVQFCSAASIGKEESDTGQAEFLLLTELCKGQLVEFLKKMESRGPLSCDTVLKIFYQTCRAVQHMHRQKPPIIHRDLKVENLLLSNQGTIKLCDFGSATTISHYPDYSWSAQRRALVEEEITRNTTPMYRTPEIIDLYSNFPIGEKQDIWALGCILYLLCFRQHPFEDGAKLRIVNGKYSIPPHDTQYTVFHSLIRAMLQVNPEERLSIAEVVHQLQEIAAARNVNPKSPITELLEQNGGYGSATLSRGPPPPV
Description: as §1

FGFR1 = target: T9, FGFR1 (Homo sapiens, UniProt P11362)
T9 construct: purchased in-house DSF panel (SGC Frankfurt)
T9 sequence (P11362 456-765): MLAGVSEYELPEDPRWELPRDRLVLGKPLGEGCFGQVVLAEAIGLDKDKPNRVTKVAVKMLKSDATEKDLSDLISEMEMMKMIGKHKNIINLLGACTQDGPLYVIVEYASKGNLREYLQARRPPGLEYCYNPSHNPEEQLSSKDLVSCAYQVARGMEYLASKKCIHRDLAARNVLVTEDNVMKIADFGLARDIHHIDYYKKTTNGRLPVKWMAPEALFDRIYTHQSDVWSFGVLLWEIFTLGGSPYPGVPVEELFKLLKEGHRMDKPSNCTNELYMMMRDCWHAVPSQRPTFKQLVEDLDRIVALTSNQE
Description: as §1

PAK4 = target: T10, PAK4 (Homo sapiens, UniProt O96013)
T10 construct: purchased in-house DSF panel (SGC Frankfurt)
T10 sequence (O96013 291-591): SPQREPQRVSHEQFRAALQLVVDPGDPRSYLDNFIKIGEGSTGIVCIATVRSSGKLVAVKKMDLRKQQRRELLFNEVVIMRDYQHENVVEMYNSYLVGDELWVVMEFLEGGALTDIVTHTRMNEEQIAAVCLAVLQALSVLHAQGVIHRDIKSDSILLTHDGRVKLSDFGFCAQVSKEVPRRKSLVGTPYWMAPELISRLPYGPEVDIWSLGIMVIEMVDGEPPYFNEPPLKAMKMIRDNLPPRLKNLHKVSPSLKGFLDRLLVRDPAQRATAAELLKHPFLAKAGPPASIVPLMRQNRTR
Description: as §1

PKMYT1 = target: T11, PKMYT1 (Homo sapiens, UniProt Q99640)
T11 construct: purchased in-house DSF panel (SGC Frankfurt)
T11 sequence (Q99640 75-362): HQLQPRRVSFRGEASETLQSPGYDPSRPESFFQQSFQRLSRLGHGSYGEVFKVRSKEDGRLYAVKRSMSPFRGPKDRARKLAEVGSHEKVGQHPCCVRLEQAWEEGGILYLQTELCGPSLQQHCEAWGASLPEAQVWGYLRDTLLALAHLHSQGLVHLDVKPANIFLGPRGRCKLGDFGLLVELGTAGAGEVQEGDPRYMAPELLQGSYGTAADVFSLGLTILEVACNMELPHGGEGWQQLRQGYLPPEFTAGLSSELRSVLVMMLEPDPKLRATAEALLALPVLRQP
Description: as §1

CDKL1 = target: T12, CDKL1 (Homo sapiens, UniProt Q00532)
T12 construct: purchased in-house DSF panel (SGC Frankfurt)
T12 sequence (Q00532 1-303): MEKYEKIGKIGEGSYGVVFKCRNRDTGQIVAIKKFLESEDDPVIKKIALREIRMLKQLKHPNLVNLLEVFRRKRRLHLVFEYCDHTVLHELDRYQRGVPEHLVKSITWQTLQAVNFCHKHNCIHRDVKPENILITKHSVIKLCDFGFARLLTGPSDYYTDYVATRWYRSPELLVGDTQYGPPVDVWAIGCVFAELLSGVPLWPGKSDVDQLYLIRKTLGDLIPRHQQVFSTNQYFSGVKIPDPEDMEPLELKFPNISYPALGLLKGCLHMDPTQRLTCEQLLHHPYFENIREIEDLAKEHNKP
Description: as §1

BMX = target: T13, BMX (Homo sapiens, UniProt P51813)
T13 construct: purchased in-house DSF panel (SGC Frankfurt)
T13 sequence (P51813 411-675): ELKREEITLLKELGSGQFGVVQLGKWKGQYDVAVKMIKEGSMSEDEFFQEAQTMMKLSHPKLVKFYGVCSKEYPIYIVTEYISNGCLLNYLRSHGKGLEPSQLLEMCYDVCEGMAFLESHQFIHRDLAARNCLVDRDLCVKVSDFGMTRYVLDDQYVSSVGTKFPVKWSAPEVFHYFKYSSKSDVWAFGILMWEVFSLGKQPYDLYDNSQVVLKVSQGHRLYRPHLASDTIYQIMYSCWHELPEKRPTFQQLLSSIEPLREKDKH
Description: as §1

STK6 = target: T14, STK6 (Homo sapiens, UniProt O14965)
T14 construct: purchased in-house DSF panel (SGC Frankfurt)
T14 sequence (O14965 122-403): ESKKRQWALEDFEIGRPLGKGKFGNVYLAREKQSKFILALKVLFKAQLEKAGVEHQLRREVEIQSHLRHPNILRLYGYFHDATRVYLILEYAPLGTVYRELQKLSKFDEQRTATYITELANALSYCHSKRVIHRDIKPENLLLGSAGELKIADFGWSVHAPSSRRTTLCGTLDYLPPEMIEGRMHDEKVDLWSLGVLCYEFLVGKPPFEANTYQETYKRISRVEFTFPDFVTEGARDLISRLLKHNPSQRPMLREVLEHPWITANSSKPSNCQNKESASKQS
Description: as §2

SRC = target: T15, SRC (Homo sapiens, UniProt P12931);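 note: compound tested at 10 µM with 2 µM protein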
T15 construct: purchased in-house DSF panel (SGC Frankfurt)
T15 sequence (P12931 254-536): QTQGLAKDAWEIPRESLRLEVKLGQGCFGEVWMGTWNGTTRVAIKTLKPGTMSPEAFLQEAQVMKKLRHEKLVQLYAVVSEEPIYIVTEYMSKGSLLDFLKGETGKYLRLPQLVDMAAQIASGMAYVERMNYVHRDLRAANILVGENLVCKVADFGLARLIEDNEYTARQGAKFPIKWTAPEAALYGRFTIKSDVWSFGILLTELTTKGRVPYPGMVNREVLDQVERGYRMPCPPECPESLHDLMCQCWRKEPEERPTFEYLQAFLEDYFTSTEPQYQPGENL
Description: as §2

PDK4 = target: T16, PDK4 (Homo sapiens, UniProt Q16654)
T16 construct: purchased in-house DSF panel (SGC Frankfurt)
T16 sequence (Q16654 whole entry): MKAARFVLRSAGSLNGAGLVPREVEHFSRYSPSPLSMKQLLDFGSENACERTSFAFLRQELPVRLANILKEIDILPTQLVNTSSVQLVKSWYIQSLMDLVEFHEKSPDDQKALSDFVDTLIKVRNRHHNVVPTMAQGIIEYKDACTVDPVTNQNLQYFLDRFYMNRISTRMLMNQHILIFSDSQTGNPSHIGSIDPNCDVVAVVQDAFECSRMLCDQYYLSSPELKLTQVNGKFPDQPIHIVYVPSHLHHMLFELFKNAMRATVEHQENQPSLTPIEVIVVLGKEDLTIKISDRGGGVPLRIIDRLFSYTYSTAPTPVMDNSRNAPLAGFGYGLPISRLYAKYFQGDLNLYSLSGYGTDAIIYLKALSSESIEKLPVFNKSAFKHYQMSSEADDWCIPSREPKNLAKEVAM
Description: as §1

`CC(C)OC(=O)c1cc(Nc2ccnc(NCc3ccc(NC(=O)OC(C)(C)C)cc3)n2)n[nH]1` [42d, isopropyl 3-((2-((4-((tert-butoxycarbonyl)amino)benzyl)amino)pyrimidin-4-yl)amino)-1H-pyrazole-5-carboxylate] was tested, and the “ΔTm EPHA2” value (EPHA2) was 0.6 °C, the “ΔTm CK2A2” value (CK2A2) was 1.1 °C and the “ΔTm MAPK15” value (MAPK15) was 7.0 °C. For the same molecule, the “ΔTm CAMK1G” value (CAMK1G) was -0.2 °C, the “ΔTm CHEK2” value (CHEK2) was 0.6 °C and the “ΔTm CAMK1D” value (CAMK1D) was -2.4 °C. For the same molecule, the “ΔTm FES” value (FES) was 0.1 °C, the “ΔTm GAK” value (GAK) was -0.9 °C and the “ΔTm FGFR1” value (FGFR1) was 0.4 °C. For the same molecule, the “ΔTm PAK4” value (PAK4) was -0.2 °C, the “ΔTm PKMYT1” value (PKMYT1) was -3.2 °C and the “ΔTm CDKL1” value (CDKL1) was 1.7 °C. The “ΔTm BMX” value (BMX) was -0.1 °C, the “ΔTm STK6” value (STK6) was 3.4 °C and the “ΔTm SRC” value (SRC) was 0.4 °C.

With `COC(=O)c1cc(Nc2ccnc(NCc3ccc(NC(=O)OC(C)(C)C)cc3)n2)[nH]n1` [21i, methyl 5-((2-((4-((tert-butoxycarbonyl)amino)benzyl)amino)pyrimidin-4-yl)amino)-1H-pyrazole-3-carboxylate] the “ΔTm EPHA2” value (EPHA2) was 0.4 °C, the “ΔTm CK2A2” value (CK2A2) was 1.3 °C and the “ΔTm MAPK15” value (MAPK15) was 5.9 °C. The “ΔTm CAMK1G” value (CAMK1G) was 0.4 °C, the “ΔTm CHEK2” value (CHEK2) was 0.6 °C and the “ΔTm CAMK1D” value (CAMK1D) was -0.5 °C. The “ΔTm FES” value (FES) was 0.0 °C, the “ΔTm GAK” value (GAK) was 1.3 °C and the “ΔTm FGFR1” value (FGFR1) was 0.0 °C. The “ΔTm PDK4” value (PDK4) was 0.9 °C, the “ΔTm PAK4” value (PAK4) was 0.2 °C and the “ΔTm PKMYT1” value (PKMYT1) was 0.2 °C. For the same molecule, the “ΔTm CDKL1” value (CDKL1) was 0.5 °C, the “ΔTm BMX” value (BMX) was -0.1 °C and the “ΔTm STK6” value (STK6) was 4.6 °C. For the same molecule, the “ΔTm SRC” value (SRC) was 0.6 °C.

`CC(C)(C)OC(=O)Nc1ccc(CNc2nccc(Nc3cc(C(=O)OC(C)(C)C)[nH]n3)n2)cc1` [43d, tert-butyl 3-((2-((4-((tert-butoxycarbonyl)amino)benzyl)amino)pyrimidin-4-yl)amino)-1H-pyrazole-5-carboxylate] was tested, and the “ΔTm EPHA2” value (EPHA2) was 1.3 °C, the “ΔTm CK2A2” value (CK2A2) was 1.1 °C and the “ΔTm MAPK15” value (MAPK15) was 5.8 °C. The “ΔTm CAMK1G” value (CAMK1G) was -0.7 °C, the “ΔTm CHEK2” value (CHEK2) was 1.3 °C and the “ΔTm CAMK1D” value (CAMK1D) was -2.9 °C. The “ΔTm FES” value (FES) was 1.1 °C, the “ΔTm GAK” value (GAK) was -4.1 °C and the “ΔTm FGFR1” value (FGFR1) was 0.6 °C. The “ΔTm PAK4” value (PAK4) was -0.9 °C, the “ΔTm PKMYT1” value (PKMYT1) was -2.0 °C and the “ΔTm CDKL1” value (CDKL1) was 2.1 °C. For the same molecule, the “ΔTm BMX” value (BMX) was -0.4 °C, the “ΔTm STK6” value (STK6) was 4.0 °C and the “ΔTm SRC” value (SRC) was 0.6 °C.

`COC(=O)c1cc(Nc2ccnc(NCCOCCNC(=O)OC(C)(C)C)n2)[nH]n1` [21d, methyl 5-((2-((2-(2-((tert-butoxycarbonyl)amino)ethoxy)ethyl)amino)pyrimidin-4-yl)amino)-1H-pyrazole-3-carboxylate] was tested, and the “ΔTm EPHA2” value (EPHA2) was 0.2 °C, the “ΔTm CK2A2” value (CK2A2) was 1.8 °C and the “ΔTm MAPK15” value (MAPK15) was 4.1 °C. For the same molecule, the “ΔTm CAMK1G” value (CAMK1G) was 0.4 °C, the “ΔTm CHEK2” value (CHEK2) was 2.5 °C and the “ΔTm CAMK1D” value (CAMK1D) was 1.4 °C. The “ΔTm FES” value (FES) was 1.5 °C, the “ΔTm GAK” value (GAK) was 2.1 °C and the “ΔTm FGFR1” value (FGFR1) was 0.5 °C. The “ΔTm PDK4” value (PDK4) was 1.8 °C, the “ΔTm PAK4” value (PAK4) was 1.0 °C and the “ΔTm PKMYT1” value (PKMYT1) was 1.0 °C. For the same molecule, the “ΔTm CDKL1” value (CDKL1) was 0.1 °C, the “ΔTm BMX” value (BMX) was 0.2 °C and the “ΔTm STK6” value (STK6) was 3.2 °C. For the same molecule, the “ΔTm SRC” value (SRC) was 0.5 °C.

`N#CCc1ccc(Nc2nccc(Nc3cc(C4CC4)[nH]n3)n2)cc1` [compound 1, reference compound] was tested, and the “ΔTm EPHA2” value (EPHA2) was 8.4 °C, the “ΔTm CK2A2” value (CK2A2) was 8.5 °C and the “ΔTm MAPK15” value (MAPK15) was 17.4 °C. The “ΔTm CAMK1G” value (CAMK1G) was 5.5 °C, the “ΔTm CHEK2” value (CHEK2) was 8.6 °C and the “ΔTm CAMK1D” value (CAMK1D) was 5.4 °C. The “ΔTm FES” value (FES) was 4.5 °C, the “ΔTm GAK” value (GAK) was 8.0 °C and the “ΔTm FGFR1” value (FGFR1) was 4.5 °C. For the same molecule, the “ΔTm PDK4” value (PDK4) was 1.2 °C, the “ΔTm PAK4” value (PAK4) was 7.7 °C and the “ΔTm PKMYT1” value (PKMYT1) was 1.0 °C. For the same molecule, the “ΔTm CDKL1” value (CDKL1) was 6.8 °C, the “ΔTm BMX” value (BMX) was 4.4 °C and the “ΔTm STK6” value (STK6) was 14.3 °C. The “ΔTm SRC” value (SRC) was 4.4 °C.
